This note sets out measurements from PMC10893103, “Cyclodextrin-Enabled Enantioselective Complexation Study of Cathinone Analogs” (Molecules, 2024).

A short description of data set [1]: Affinity capillary electrophoresis (ACE), pH 7.4. Conditions: 30 mM phosphate buffer pH 7.4, 25 °C, 15 kV. The method in brief:
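Mobility-shift ACE of cathinone analogues with cyclodextrins (0.25–20 mM in BGE) in 30 mM phosphate pH 7.4, 25 °C, fused-silica capillary, 15 kV, UV 215 nm, DMSO as EOF marker. Mobilities obtained by HVL peak fitting; complex stability constants corrected for viscosity and ionic strength.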

Data set [2] can be described thus: Affinity capillary electrophoresis (ACE), pH 4.5. The note with it: 20 mM acetate buffer pH 4.5, 25C, 15 kV. The text has this:
The simplest way to determine the mobility is from the migration times (tmax) read from the electropherograms from which the apparent mobility could be calculated, but more accurate mobility values could be obtained by the determination with the Haarhoff–van der Linde (HVL) function based on Equation (2). (2) HVLδ(t;a0,a1,a2,a3δ)=a0/a2a3δ2πexp[−1/2(t−a1/a2)^2]/1/exp(a3δ)−1+1/2[1+erf(t−a1/2a2)] where a0 is the area of the HVL function, a1 is the position of the Gaussian component, a2 is the standard deviation of the Gaussian component, and a3δ is the peak shape distortion. The application of the HVL function is necessary in the case of accurate ACE measurements because, in several cases, the peaks are distorted due to the complex formation, which makes reading the migration times and calculating the mobility more difficult and imprecise.
The most popular technique for quantifying the analyte–ligand interaction with CE is mobility shift ACE. This technique involves varying the background electrolyte’s ligand concentrations while introducing a constant volume of the analyte and an EOF marker into the capillary. The analyte–ligand equilibrium is assumed to happen before the separation is complete, requiring fast complex formation kinetics. Typical ligand concentrations are 1–2 orders of magnitude greater than the analyte. The following equation describes the observed mobility as a function of the interaction with the following analyte ligand:(3) μ=μfff+μcfc where μ is the observed mobility, μf and μc are the electrophoretic mobility of the free and complexed analyte, and ff and fc are the free and ligand-bound fractions of the analyte.
Assuming a 1:1 binding stoichiometry, the effective mobility (μeff, calculated by correcting with the EOF marker mobility) can be expressed as (4) μeff=μfK+μc[L]/K+[L] where K is the equilibrium dissociation constant and [L] is the ligand concentration. The apparent complex stability constant (K) can be calculated using several methods, e.g., the X-reciprocal method with linear fitting, but non-linear curve fitting based on Equation (4) is more accurate. A hyperbolic growing or decline curve is obtained, and K could be determined by plotting the effective mobility as a function of the [L] (e.g., CD concentration) in the background electrolyte. The CEval software enables faster and simpler evaluation of electropherograms and further data processing to determine the stability constants of complexes with a 1:1 stoichiometric ratio [27].
During the ACE measurement series, the CD concentration is increased whilst injecting a constant amount of the cathinone derivatives and the EOF marker DMSO. The complex stability calculations were conducted with the CEval program applying the HVL function to eliminate the effect of electromigration dispersion on migration time for exact mobility and, thus complex stability constant determination. Viscosity correction and ionic strength correction were applied. […]

`CC(=O)O[C@@H]1[C@@H](OC(C)=O)[C@H]2O[C@H]3[C@H](OC(C)=O)[C@@H](OC(C)=O)[C@@H](O[C@H]4[C@H](OC(C)=O)[C@@H](OC(C)=O)[C@@H](O[C@H]5[C@H](OC(C)=O)[C@@H](OC(C)=O)[C@@H](O[C@H]6[C@H](OC(C)=O)[C@@H](OC(C)=O)[C@@H](O[C@H]7[C@H](OC(C)=O)[C@@H](OC(C)=O)[C@@H](O[C@H]8[C@H](OC(C)=O)[C@@H](OC(C)=O)[C@@H](O[C@@H]1[C@@H](COS(=O)(=O)O)O2)O[C@@H]8COS(=O)(=O)O)O[C@@H]7COS(=O)(=O)O)O[C@@H]6COS(=O)(=O)O)O[C@@H]5COS(=O)(=O)O)O[C@@H]4COS(=O)(=O)O)O[C@@H]3COS(=O)(=O)O` [HDAS-β-CD, heptakis-(2,3-O-diacethyl, 6-O-sulfo)-β-CD]: in data set [1], the “4-MEC–CD complex stability constant, Kstab2 (second migrating enantiomer)” value was determined as 830 ± 45 M⁻¹; the “4-MEC–CD complex stability constant, Kstab/Kstab1 (unresolved or first migrating enantiomer)” value amounted to 560 ± 40 M⁻¹; the “Butylone–CD complex stability constant, Kstab/Kstab1 (unresolved or first migrating enantiomer)” value was found to be 725 ± 20 M⁻¹; the “Flephedrone–CD complex stability constant, Kstab2 (second migrating enantiomer)” value was found to be 360 ± 75 M⁻¹. For the same molecule, in data set [1], the “Flephedrone–CD complex stability constant, Kstab/Kstab1 (unresolved or first migrating enantiomer)” value was 110 ± 37 M⁻¹; the “MDPV–CD complex stability constant, Kstab2 (second migrating enantiomer)” value was 340 ± 30 M⁻¹; the “MDPV–CD complex stability constant, Kstab/Kstab1 (unresolved or first migrating enantiomer)” value amounted to 360 ± 55 M⁻¹; the “Mephedrone–CD complex stability constant, Kstab2 (second migrating enantiomer)” value is 730 ± 40 M⁻¹. The “Mephedrone–CD complex stability constant, Kstab/Kstab1 (unresolved or first migrating enantiomer)” value in data set [1] amounted to 450 ± 60 M⁻¹. In data set [2], the “Flephedrone–CD complex stability constant Kstab1 (first migrating enantiomer)” value amounted to 470 ± 40 M⁻¹; the “Flephedrone–CD complex stability constant, Kstab2 (second migrating enantiomer)” value came to 660 ± 55 M⁻¹; the “MDPV–CD complex stability constant Kstab1 (first migrating enantiomer)” value stood at 800 ± 50 M⁻¹; the “MDPV–CD complex stability constant, Kstab2 (second migrating enantiomer)” value was determined as 960 ± 80 M⁻¹.
In the case of `O=S(=O)(O)OC[C@H]1O[C@@H]2O[C@H]3[C@H](O)[C@@H](O)[C@@H](O[C@H]4[C@H](O)[C@@H](O)[C@@H](O[C@H]5[C@H](O)[C@@H](O)[C@@H](O[C@H]6[C@H](O)[C@@H](O)[C@@H](O[C@H]7[C@H](O)[C@@H](O)[C@@H](O[C@H]8[C@H](O)[C@@H](O)[C@@H](O[C@H]1[C@H](O)[C@H]2O)O[C@@H]8COS(=O)(=O)O)O[C@@H]7COS(=O)(=O)O)O[C@@H]6COS(=O)(=O)O)O[C@@H]5COS(=O)(=O)O)O[C@@H]4COS(=O)(=O)O)O[C@@H]3COS(=O)(=O)O` [HS-β-CD, heptakis-(6-O-sulfo)-β-CD], in data set [1], the “Flephedrone–CD complex stability constant, Kstab2 (second migrating enantiomer)” value was determined as 470 ± 65 M⁻¹ and the “Flephedrone–CD complex stability constant, Kstab/Kstab1 (unresolved or first migrating enantiomer)” value stood at 580 ± 14 M⁻¹. Also, in data set [2], the “Flephedrone–CD complex stability constant Kstab1 (first migrating enantiomer)” value turned out to be 635 ± 35 M⁻¹; the “Flephedrone–CD complex stability constant, Kstab2 (second migrating enantiomer)” value came to 615 ± 30 M⁻¹; the “MDPV–CD complex stability constant Kstab1 (first migrating enantiomer)” value came to 500 ± 45 M⁻¹.
As to `OCCCNC[C@H]1O[C@@H]2O[C@H]3[C@H](O)[C@@H](O)[C@@H](O[C@H]4[C@H](O)[C@@H](O)[C@@H](O[C@H]5[C@H](O)[C@@H](O)[C@@H](O[C@H]6[C@H](O)[C@@H](O)[C@@H](O[C@H]7[C@H](O)[C@@H](O)[C@@H](O[C@H]8[C@H](O)[C@@H](O)[C@@H](O[C@H]1[C@H](O)[C@H]2O)O[C@@H]8CO)O[C@@H]7CO)O[C@@H]6CO)O[C@@H]5CO)O[C@@H]4CO)O[C@@H]3CO` [HPA-β-CD, mono-6^A-(3-hydroxy)propylamino-β-CD], in data set [1], the “4-MEC–CD complex stability constant, Kstab/Kstab1 (unresolved or first migrating enantiomer)” value amounted to 145 ± 15 M⁻¹; the “Butylone–CD complex stability constant, Kstab/Kstab1 (unresolved or first migrating enantiomer)” value is 85 ± 15 M⁻¹; the “Flephedrone–CD complex stability constant, Kstab/Kstab1 (unresolved or first migrating enantiomer)” value stood at 500 ± 105 M⁻¹; the “MDPV–CD complex stability constant, Kstab2 (second migrating enantiomer)” value is 570 ± 80 M⁻¹. For the same molecule, in data set [1], the “MDPV–CD complex stability constant, Kstab/Kstab1 (unresolved or first migrating enantiomer)” value is 840 ± 65 M⁻¹ and the “Mephedrone–CD complex stability constant, Kstab/Kstab1 (unresolved or first migrating enantiomer)” value came to 140 ± 35 M⁻¹.
As for “sulfobutyl-ether-β-CD [SBE-β-CD (DS~6.5)]”, in data set [1], the “4-MEC–CD complex stability constant, Kstab2 (second migrating enantiomer)” value was found to be 660 ± 35 M⁻¹; the “4-MEC–CD complex stability constant, Kstab/Kstab1 (unresolved or first migrating enantiomer)” value was 560 ± 35 M⁻¹; the “Flephedrone–CD complex stability constant, Kstab2 (second migrating enantiomer)” value was determined as 200 ± 12 M⁻¹; the “Flephedrone–CD complex stability constant, Kstab/Kstab1 (unresolved or first migrating enantiomer)” value was determined as 200 ± 20 M⁻¹. Moreover, in data set [1], the “Mephedrone–CD complex stability constant, Kstab2 (second migrating enantiomer)” value was 500 ± 40 M⁻¹ and the “Mephedrone–CD complex stability constant, Kstab/Kstab1 (unresolved or first migrating enantiomer)” value was determined as 500 ± 20 M⁻¹.
On to acetylated-β-CD [Ac-β-CD], for which, in data set [1], the “4-MEC–CD complex stability constant, Kstab/Kstab1 (unresolved or first migrating enantiomer)” value came to 150 ± 15 M⁻¹; the “Butylone–CD complex stability constant, Kstab2 (second migrating enantiomer)” value came to 380 ± 30 M⁻¹; the “Butylone–CD complex stability constant, Kstab/Kstab1 (unresolved or first migrating enantiomer)” value was determined as 290 ± 30 M⁻¹; the “Flephedrone–CD complex stability constant, Kstab/Kstab1 (unresolved or first migrating enantiomer)” value was found to be 100 ± 14 M⁻¹. In data set [1], the “MDPV–CD complex stability constant, Kstab2 (second migrating enantiomer)” value was 240 ± 20 M⁻¹; the “MDPV–CD complex stability constant, Kstab/Kstab1 (unresolved or first migrating enantiomer)” value is 310 ± 30 M⁻¹; the “Mephedrone–CD complex stability constant, Kstab/Kstab1 (unresolved or first migrating enantiomer)” value is 220 ± 20 M⁻¹.
Take `O=C(O)CCSC[C@H]1O[C@@H]2O[C@H]3[C@H](O)[C@@H](O)[C@@H](O[C@H]4[C@H](O)[C@@H](O)[C@@H](O[C@H]5[C@H](O)[C@@H](O)[C@@H](O[C@H]6[C@H](O)[C@@H](O)[C@@H](O[C@H]7[C@H](O)[C@@H](O)[C@@H](O[C@H]8[C@H](O)[C@@H](O)[C@@H](O[C@H]1[C@H](O)[C@H]2O)O[C@@H]8CSCCC(=O)O)O[C@@H]7CSCCC(=O)O)O[C@@H]6CSCCC(=O)O)O[C@@H]5CSCCC(=O)O)O[C@@H]4CSCCC(=O)O)O[C@@H]3CSCCC(=O)O` [SBX, heptakis-(6-deoxy-6-(2-carboxyethyl)thio)-β-CD]: in data set [1], the “Flephedrone–CD complex stability constant, Kstab2 (second migrating enantiomer)” value is 610 ± 45 M⁻¹; the “Flephedrone–CD complex stability constant, Kstab/Kstab1 (unresolved or first migrating enantiomer)” value was 575 ± 35 M⁻¹; the “MDPV–CD complex stability constant, Kstab2 (second migrating enantiomer)” value is on record as 12,830 ± 900 M^−1.
Turning to `COC[C@H]1O[C@@H]2O[C@H]3[C@H](OC)[C@@H](OC)[C@@H](O[C@H]4[C@H](OC)[C@@H](OC)[C@@H](O[C@H]5[C@H](OC)[C@@H](OC)[C@@H](O[C@H]6[C@H](OC)[C@@H](OC)[C@@H](O[C@H]7[C@H](OC)[C@@H](OC)[C@@H](O[C@H]8[C@H](OC)[C@@H](OC)[C@@H](O[C@H]9[C@H](OC)[C@@H](OC)[C@@H](O[C@H]1[C@H](OC)[C@H]2OC)O[C@@H]9COC)O[C@@H]8COC)O[C@@H]7COC)O[C@@H]6COC)O[C@@H]5COC)O[C@@H]4COC)O[C@@H]3COC` [TRIME-γ-CD, permethylated-γ-CD], in data set [1], the “4-MEC–CD complex stability constant, Kstab/Kstab1 (unresolved or first migrating enantiomer)” value was 20 ± 4 M⁻¹; the “Butylone–CD complex stability constant, Kstab/Kstab1 (unresolved or first migrating enantiomer)” value came to 25 ± 10 M⁻¹; the “Flephedrone–CD complex stability constant, Kstab/Kstab1 (unresolved or first migrating enantiomer)” value is under 10 M⁻¹; the “MDPV–CD complex stability constant, Kstab/Kstab1 (unresolved or first migrating enantiomer)” value is 45 ± 14 M⁻¹. Moreover, in data set [1], the “Mephedrone–CD complex stability constant, Kstab/Kstab1 (unresolved or first migrating enantiomer)” value is under 10 M⁻¹.
For sulfopropylated-β-CD [SP-β-CD (DS~4)], in data set [1], the “4-MEC–CD complex stability constant, Kstab/Kstab1 (unresolved or first migrating enantiomer)” value came out at 620 ± 65 M⁻¹; the “Flephedrone–CD complex stability constant, Kstab/Kstab1 (unresolved or first migrating enantiomer)” value was determined as 120 ± 12 M⁻¹; the “Mephedrone–CD complex stability constant, Kstab2 (second migrating enantiomer)” value was found to be 450 ± 65 M⁻¹; the “Mephedrone–CD complex stability constant, Kstab/Kstab1 (unresolved or first migrating enantiomer)” value is 500 ± 65 M⁻¹.
